Columns and labels:
mesenchymal stem cells = experiment: Expression of osteoblast marker genes (iBSP, PTHR1, STMN2, OSTERIX) in mesenchymal stem cells by quantitative RT-PCR; format: cell-based, human; conditions: for osteoblast differentiation of mesenchymal stem cells: conclusion from increased expression of osteoblast marker genes
Description: The respective effects of miPEP 125a-1 and miPEP 145-2 on differentiation of mesenchymal stem cells were analyzed by measuring the expression of the iBSP, PTHR1, STMN2 and OSTERIX genes that correspond to markers of osteogenesis and of osteoblast differentiation (Chiellini et al., Biochem Biophys Res Commun, 374(1):64-8, 2008; Cordonnier et al., Tissue Eng, 17(3): 249-259, 2011).
The experiments were carried out with two fragments of 10 amino acids respectively corresponding to the N-terminal part of the miPEP 125a-1 (=miPEP//125a-1 fragment) and to the N-terminal part of the miPEP 145-2 (=fragment miPEP//145-2).
Mesenschymal stem cells from 4 different donors were cultured for 24 hours in PROLIF medium (αMEM+10% FCS) with or without miPEP//then for 3 days in DIF+BMP4 medium (αMEM+2% FCS+b-Glycerophosphate+Ascorbic acid+BMP4), DIF ΔBMP4 medium (αMEM+2% FCS+b-Glycerophosphate+Ascorbic acid) or PROLIF medium (αMEM+10% FCS), with or without miPEP//.
The expression of the iBSP, PTHR1, STMN2 and OSTERIX genes was then measured in mesenchymal stem cells cultured in the presence or absence of a miPEP*.
a. Composition of Culture Media • Proliferation medium (PROLIF): αMEM+10% FBS+1% P/S • Differentiation medium+BMP4 (DIF+BMP4): αMEM+2% FBS+1% P/S+βglycerophosphate (10 mM)+Ascorbic acid (50 μM)+BMP4 (50 ng/mL) • Differentiation medium without BMP4 (DIF ΔBMP4): αMEM+2% FBS+1% P/S+βglycerophosphate (10 mM)+Ascorbic acid (50 μM)
The miPEP//145-2 was synthesized by Smartbioscience and dissolved at 2 mM in water. The miPEP//125a-1 was synthesized by Smartbioscience and dissolved in water+0.1% ammonium.
The mesenchymal stem cells were seeded in 12-well plates at 70,000 cells/well in 1 mL of PROLIF medium. The cells were then incubated for 72 h at 37° C. in a humid atmosphere with 5% CO2.
After 72 hours of incubation, the cells were pre-treated with 100 μM of miPEP or “scramble” peptide diluted in PROLIF medium, and then incubated at 37° C. for 24 hours. In parallel, cells treated with PROLIF±water or water+0.1% ammonium medium were used as a negative control.
For 3 days, the cells were treated every 24 h with 100 μM of diluted miPEP either in DIF+BMP4 medium, or in DIF ΔBMP4 medium, or in PROLIF medium. Cells untreated or treated with water or water+0.1% ammonium were used as controls. The cells are incubated at 37° C.
After 3 days of treatment, the culture supernatants were removed, the cell mats were washed once with PBS, and then the plates were frozen at −80° C. until the total RNAs were extracted.
Total RNAs were extracted according to the supplier's recommendations with the miRNeasy microkit kit (Qiagen).
The RNAs were reverse transcribed with the High Capacity cDNA reverse transcription kit (Applied Biosystem). 600 ng of RNA were added to 2 μL of RT buffer (10×), 2 μL of Random primer (10×), 0.8 μL of dNTPs (25×), 0.5 μL of RNAse OUT (40 U/μL) and 1 μL of multiscribe reverse transcriptase (50 U/μL) in a total volume of 20 μL. The reverse transcription reaction was carried out at 25° C. for 10 min and then 42° C. for 2 h. The activity of the enzyme was stopped by incubating the mixture at 85° C. for 5 min.
The expression of osteoblastic transcription factors iBSP, PTHR1, STMN2 and OSTERIX was evaluated by quantitative RT-PCR with the SsoFast EvagGreen kit. For the RT-PCR reaction, 3 μL of […] diluted 1/8 were added to 1× of SsoFast EvaGreen, 10 μM of each primer and RNase free water in a final volume of 10 μL. The reaction was subjected to the following temperatures: 3 min pre-amplification at 95° C., 40 cycles of 10 sec at 95° C. and […] in a thermal cycler (CFX96 Real-time PCR detection system, Biorad). PPIA was used as a reference gene to normalize quantitative RT-PCR.
For all PCR reactions, two replicates were used for each biological sample.

Nude mice = experiment: In vivo bone formation by subcutaneous implantation of MSCs + HA/β-TCP biomaterial in Nude mice
Description: For D. and F. conditions, mice also received regular injections (once a week) of either miPEP//125a-1 (D) or scramble miPEP (F) during the study. After 4 weeks, the mice are euthanized and the grafts were then isolated, fixed, included in methacrylate, cut and treated for histology. The cuts were scanned (NDPview) and bone formation (dark grey) is evaluated (A to F) and is also quantified (G) using the Fiji image analysis software and the total area of new bone is reported to the total area of the cut
For G, the y-axis indicates the percentage of bone formation and the statistical analyzes were performed with the paired t-test (p-value: * p<0.05; ** p<0.01 and *** p<0.001).
All experiments on animals were done in accordance with directive 2010/63/EU and after validation of protocols by the Animal Ethics Committee (Toulouse, N: 86/809 EEC). A total of 6-8 mice was used per group. The cells cultured osteo-induced or not according to the methods described elsewhere (see Example 1), were then suspended for 1 to 2 h in the culture medium also containing granules of biomaterials in the ratio of 2×10^6 cells/50 mg of biomaterial. These biomaterials were biphasic inorganic calcium phosphate (BCP), composed of hydroxyapatite (HA) and beta-tricalcium phosphate (β-TCP) in a ratio of 20/80, ranging in size from 0.5 to 1 mm (sold by Biomatlante, Vigneux de Bretagne, France). The porosity of these biomaterials (% vol) was 75±5% of pores of which 70% (0 to 10 μm), 20% (10 to 100 μm) and 10% (100 to 300 μm). They were sterilized by autoclaving.
The biomaterial alone has been implanted as a negative control. Female Nude mice (RjOrl: NMRI-Foxnnul/Foxnlnu) (Laboratoires Janvier, Saint-Berthevin, France) are generally anesthetized by inhalationn of isoflurane. Two implants (cells+biomaterials) are subcutaneously placed in the back of the mice on each side of the spine. After 4 weeks, the treated animals are sacrificed. The implants are then removed and fixed in a buffered 4% formalin solution. Some groups of mice will also receive regular injections (once a week) during the study either of the miPEP//125a-1 (SEQ ID NO: 11 752) or the control miPEP (scramble ScmiPEP//125a, SEQ ID NO: 11 758).
These implants were then decalcified in a solution of 4.13% EDTA/0.2% PFA in PBS for 96 hours at 50° C. using an automatic microwave for demineralization (KOS Histostation, Milestone Med. Corp. USA). The samples were dehydrated in ethanol and then butanol baths in an automatic dehydration apparatus (MicromMicrotech, Lyon, France). The samples were then immersed in paraphine (Histowax, Histolab, Gottenburg, Sweden). Fine sections ([…]) were made using a microtome (Leica RM2255, Leica Biosystems, Nanterre, France). The sections were stained by the Masson trichrome technique and the collagen in light green.
The photos were obtained by a scan of each cut (NanoZoomer, Hamamatsu, Photonics, Hamamatsu City, Shizuoka, Japan) and observed virtually (NDP view, Hamamatsu). The histomorphometry of the images was done using the ImageJ software and the neoformed bone percentage was calculated by explant area. 3 to 4 sections per explant were analyzed and quantified.

miR16-1 = experiment: Accumulation of miR16-1 in mesenchymal stem cells by RT-qPCR; format: cell-based, human; conditions: 10 μM for 3 h, MSCs from three patients, normalized to PPIA; FIG. 16
Description: The mesenchymal stem cells were treated with 10 μM of miPEP//15a-16-1-TAT, treated with 10 μM of control peptide (ScmiPEP//21-1) or untreated (NT) for 3 hours. The amount of miR16-1 precursor in cells has been measured by quantitative RT-PCR. The measurement of the amount of miR16-1 precursor was normalized with respect to the PPIA household gene. Analyzes and statistics were performed with the Mann-Withney test (p-value: * p<0.05; ** p<0.01 and *** p<0.001).
The effect of miPEP 15a-16-1 on miR16-1 accumulation was analyzed in mesenchymal stem cells (MSCs). The experiments were carried out with a fragment of 10 amino acids respectively corresponding to the N-terminal portion of the miPEP 15a-16-1 (=fragment miPEP//15 a-16-1).
MSCs from three different patients were treated with 10 μM of miPEP//15a-16-1 fused to TAT peptide (miPEP//15a-16-1-TAT) for 3 h, then the amount of miR16-1 was measured by RT-qPCR.
Peptides were synthesized by Smartbioscience and dissolved at 2 mM in water.
The MSCs were seeded in wells of 12-well plates at 72,900 cells per well under 1 mL of PROLIF medium. The cells were then incubated for 72 h at 37° C. in a humid atmosphere with 5% CO2. […]
The amount of miRNAs precursors in cells treated or not treated with miPEP was evaluated by quantitative RT-PCR with the SsoFast EvagGreen kit. […] PPIA was used as a reference gene to normalize quantitative RT-PCR. […]

[1] = DIF ΔBMP4 medium, 100 μM miPEP, 4 days, FIGS. 7 and 9
[2] = DIF ΔBMP4 medium, 100 μM miPEP, 4 days, FIGS. 8 and 10
[3] = DIF+BMP4 medium, 100 μM miPEP, 4 days, FIGS. 4 and 6

| Substance | expression of the STMN2 gene (mesenchymal stem cells; [1]) | expression of the OSTERIX gene (mesenchymal stem cells; [2]) | expression of the iBSP gene (mesenchymal stem cells; DIF+BMP4 medium, 100 μM miPEP, 4 days, FIG. 2) | expression of the PTHR1 gene (mesenchymal stem cells; DIF+BMP4 medium, 100 μM miPEP, 4 days, FIG. 3) | expression of the OSTERIX gene (mesenchymal stem cells; DIF+BMP4 medium, 100 μM miPEP, 4 days, FIG. 5) | expression of the STMN2 gene (mesenchymal stem cells; [3]) | osteoblast differentiation of mesenchymal stem cells (mesenchymal stem cells) | bone formation, quantified neoformed bone (Nude mice; MSCs only pre-treated in vitro (C) versus untreated MSCs (B), p=0.0241, FIG. 17G) | bone formation, quantified neoformed bone (Nude mice; MSCs pre-treated in culture (C) versus MSCs pre-treated with scramble miPEP (E), p=0.0499, FIG. 17G) | bone formation, quantified neoformed bone (Nude mice; MSCs pre-treated in vitro and then in vivo (D) versus untreated MSCs (B), p=0.0203, FIG. 17G) | bone formation, qualitative (histology images) (Nude mice; MSCs pre-treated with miPEP (FIG. 17C-D) versus scramble miPEP (FIG. 17E-F), 4 weeks) | ability of human MSCs to form bone in vivo (Nude mice; MSCs previously treated in vitro) | effect of in vivo injection of the miPEP on the induction of bone formation (Nude mice; pre-treated MSCs plus weekly injection (D) versus MSCs only pre-treated (C), FIG. 17G) | expression of the STMN2 gene (mesenchymal stem cells; PROLIF medium, 100 μM miPEP, 4 days, FIG. 11) | amount of miR 16-1 (miR16-1) |
| --- | --- | --- | --- | --- | --- | --- | --- | --- | --- | --- | --- | --- | --- | --- | --- |
| MSLCLSPSLT [miPEP//125a-1, fragment of 10 amino acids corresponding to the N-terminal part of the miPEP 125a-1] | increases | increases | increases | increases | increases | increases | promote osteoblast differentiation | significantly higher | significantly more bone formation | significantly higher | greater | increased | without consequence |  |  |
| MVGLNPPLWQ [miPEP//145-2, fragment of 10 amino acids corresponding to the N-terminal part of the miPEP 145-2] | increases | increases |  |  |  | increases | promote osteoblast differentiation |  |  |  |  |  |  | increases |  |
| MFKHRFFYMH-YGRKKRRQRRR [miPEP//15a-16-1-TAT] |  |  |  |  |  |  |  |  |  |  |  |  |  |  | increase |

Reference: patent publication US11607443B2, “Therapeutic peptides” (UNIVERSITE TOULOUSE III-PAUL SABATIER, priority 2016, dated 2023)
